What is called melting point is the temperature, or range, at which the solid turns liquid.

For `CN1CC(=O)N2[C@@H](c3ccoc3)c3[nH]c4ccccc4c3C[C@@H]2C1=O` (relative stereo) [Example 59, Cis-2,3,6,7,12,12a-Hexahydro-2-Methyl-6-(3-Furyl)-Pyrazino(2′,1′:6,1)Pyrido(3,4-b)Indole-1,4-Dione], the melting point turned out to be 250 °C. For `CCCCN1CC(=O)N2[C@@H](c3ccc(C)cc3)c3[nH]c4ccccc4c3C[C@@H]2C1=O` (relative stereo) [Example 63, Cis-2,3,6,7,12,12a-Hexahydro-2-Butyl-6-(4-Methylphenyl)-Pyrazino(2′,1′:6,1)Pyrido(3,4-b)Indole-1,4-Dione] the value was 194 °C. For `O=C1[C@H]2Cc3c([nH]c4ccccc34)[C@@H](c3ccc4c(c3)CCC4)N2C(=O)CN1CC1CC1` [Example 94, (6R,12aR)-2,3,6,7,12,12a-Hexahydro-6-(5-Indanyl)-2-Cyclopropylmethylpyrazino(2′,1′:6,1)Pyrido(3,4-b)Indole-1,4-Dione] the value was 176 °C. Take `Cc1ccc([C@H]2c3[nH]c4ccccc4c3C[C@@H]3C(=O)N(C)CC(=O)N23)o1` (relative stereo) [Example 60, Cis-2,3,6,7,12,12a-Hexahydro-2-Methyl-6-(5-Methyl-2-Furyl)-Pyrazino(2′,1′:6,1)Pyrido(3,4-b)Indole-1,4-Dione]: the melting point stood at 303 °C. For `CC(C)c1ccc([C@H]2c3[nH]c4ccccc4c3C[C@@H]3C(=O)N(C)CC(=O)N23)cc1` (relative stereo) [Example 74, Cis-2,3,6,7,12,12a-Hexahydro-6-(4-Isopropylphenyl)-2-Methylpyrazino(2′,1′:6,1)Pyrido(3,4-b)Indole-1,4-Dione], the melting point amounted to 244 °C. Molecule `O=C1[C@H]2Cc3c([nH]c4ccccc34)[C@H](c3ccc4c(c3)CCO4)N2C(=O)CN1CC1CC1` (relative stereo) [Example 37, Cis-2,3,6,7,12,12a-Hexahydro-6-(2,3-Dihydrobenzo(b)Furan-5-yl)-2-Cyclopropylmethyl-Pyrazino(2′,1′:6,1)Pyrido(3,4-b)Indole-1,4-Dione] displayed a melting point of 165 to 166 °C.

`O=C1[C@H]2Cc3c([nH]c4ccccc34)[C@H](c3ccc4c(c3)OCO4)N2C(=O)CN1Cc1ccccc1` (relative stereo) [Example 23, Cis-2,3,6,7,12,12a-Hexahydro-2-Benzyl-6-(3,4-Methylenedioxyphenyl)Pyrazino(2′,1′:6,1)Pyrido(3,4-b)Indole-1,4-Dione]: the melting point lay in the range of 285 to 287 °C. In turn, `O=C1[C@H]2Cc3c([nH]c4ccccc34)[C@H](c3ccc4c(c3)OCO4)N2C(=O)CN1CC(F)(F)F` (relative stereo) [Example 14, Cis-2,3,6,7,12,12a-Hexahydro-2-(2,2,2-Trifluoroethyl)-6-(3,4-Methylenedioxyphenyl)-Pyrazino(2′,1′:6,1)Pyrido(3,4-b)Indole-1,4-Dione] registered a melting point of 303 °C. The molecule `COc1ccc([C@H]2c3[nH]c4ccccc4c3C[C@@H]3C(=O)N(CC(F)(F)F)CC(=O)N23)cc1` (relative stereo) [Example 28, Cis-2,3,6,7,12,12a-Hexahydro-6-(4-Methoxyphenyl)-2-(2,2,2-Trifluoroethyl)Pyrazino(2′,1′:6,1)Pyrido(3,4-b)Indole-1,4-Dione] displayed a melting point of 232 °C. The figure for `CN1CC(=O)N2[C@H](c3ccc4occc4c3)c3[nH]c4ccccc4c3C[C@@H]2C1=O` [Example 120, (6R, 12aR)-2,3,6,7, 12, 12a-Hexahydro-6-(5-Benzofuranyl)-2-Methyl-Pyrazino[2′,1′:6,1]Pyrido[3,4-b]Indole-1,4-Dione] is 291 to 293 °C.

The values above are taken from patent US20020035111A1, “Method of inhibiting neoplastic cells with tetracyclic pyrido[3,4-B] indole derivatives” (priority 1998, published 2002).
